From patent US20250134907A1, “FUSED DIAZEPINES AS AGONISTS OF THE INSULIN-LIKE 3 (INSL3) PEPTIDE RECEPTOR RXFP2 AND METHODS OF USE THEREOF” (The United States of America,as represented by the …, priority 2022, published 2025) come the findings set out here.

The test deals with T1, RXFP2 (Homo sapiens, UniProt Q8WXD0).
T1 construct: expressed in transfected cells
As to the kind of experiment: HTRF cAMP assay in HEK293T cells stably expressing RXFP2 (HEK-RXFP2). Type of test: cell-based. Conditions: for % EFF vs. 1 nM INSL3 (a): maximum cAMP response normalized to 1 nM INSL3 response; for % EFF vs. 100 nM INSL3 (c): normalized to 100 nM INSL3 cAMP response; for % EFF vs. 1 nM INSL3 (b): normalized to 1 nM INSL3 cAMP response. The procedure: Compound efficacy and EC50 were determined by measuring cAMP induction in vitro. HEK293T cells stably expressing RXFP2 (HEK-RXFP2) produce cAMP when RXFP2 is activated, which can be measured in an antibody-based immunoassay utilizing a fluorescent readout (cAMP Gs HiRange Kit, PerkinElmer, Waltham, MA). HEK-RXFP2 cells were seeded in 96-well plates in serum-free DMEM and incubated overnight at 37° C., 5% CO2. Plates were then treated with a compound titration up to 25 μM or INSL3 control, in the presence of isobutylmethylxanthine phosphodiesterase inhibitor (IBMX) at 200 μM to amplify the cAMP signal, for 1 hour at 37° C., 5% CO2 before being processed as per kit instructions. Table 7 lists the efficacy and EC50 of compounds tested under different experimental conditions. […] In condition (a), 20,000 cells were seeded per well in the 96 well plate, and efficacy was determined by normalizing the maximum compound cAMP response to the 1 nM INSL3 cAMP response (% Efficacy 1 nM INSL3 (a)). In condition (b), 10,000 cells were seeded per well, and compound response was normalized to the 1 nM INSL3 cAMP response (% Efficacy 1 nM INSL3 (b)). In condition (c), 7,500 cells were seeded per well, compound response was normalized to the 100 nM INSL3 cAMP response, and IBMX was omitted (% Efficacy 100 nM INSL3 (c)). A range is given when compounds were tested multiple times. Where compounds were tested under multiple experimental conditions, the EC50 listed for the corresponding condition is marked (a) through (c) to correlate. When EC50 could not be calculated from the dose-response curve, EC50 is listed as not determined (ND).

Where [1] appears, read: condition (a): 20,000 cells/well, IBMX 200 μM.
The mark [2] stands for this setting: condition (c): 7,500 cells/well, IBMX omitted.
[3] abbreviates: condition (b): 10,000 cells/well, IBMX 200 μM.

T1 sequence (Q8WXD0 whole entry): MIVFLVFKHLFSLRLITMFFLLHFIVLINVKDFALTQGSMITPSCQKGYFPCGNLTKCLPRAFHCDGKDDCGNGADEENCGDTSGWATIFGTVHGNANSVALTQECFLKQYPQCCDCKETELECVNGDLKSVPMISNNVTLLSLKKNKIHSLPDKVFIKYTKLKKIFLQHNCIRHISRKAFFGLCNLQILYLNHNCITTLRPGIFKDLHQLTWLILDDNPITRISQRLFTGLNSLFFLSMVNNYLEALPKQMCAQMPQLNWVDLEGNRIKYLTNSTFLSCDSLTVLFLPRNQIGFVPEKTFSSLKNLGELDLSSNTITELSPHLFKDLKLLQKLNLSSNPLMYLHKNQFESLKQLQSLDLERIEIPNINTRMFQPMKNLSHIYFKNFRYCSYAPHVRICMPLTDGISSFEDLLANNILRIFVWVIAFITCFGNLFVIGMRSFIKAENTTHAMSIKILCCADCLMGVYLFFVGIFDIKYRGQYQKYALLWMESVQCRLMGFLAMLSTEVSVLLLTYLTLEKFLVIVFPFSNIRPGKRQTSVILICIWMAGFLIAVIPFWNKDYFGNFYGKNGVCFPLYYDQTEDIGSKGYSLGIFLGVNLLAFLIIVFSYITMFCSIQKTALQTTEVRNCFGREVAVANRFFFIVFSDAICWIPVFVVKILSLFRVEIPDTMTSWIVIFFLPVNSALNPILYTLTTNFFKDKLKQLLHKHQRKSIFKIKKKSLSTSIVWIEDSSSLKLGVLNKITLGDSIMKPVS

As a reminder, the EC50 is the concentration that produces a half-maximal response. A high value points to a less potent agent. With `O=C1Nc2ccc(-c3cccc(C(F)(F)F)c3)cc2C(=O)N2CCN(C(=O)COc3ccc(C(F)(F)F)c(F)c3F)CC12` (stereo not drawn) [Example 68, 2-(2-(2,3-difluoro-4-(trifluoromethyl)phenoxy)acetyl)-8-(3-(trifluoromethyl)phenyl)-1,3,4,12a-tetrahydrobenzo[e]pyrazino[1,2-a][1,4]diazepine-6,12 (2H, 11H)-dione], under setting [1], the midpoint of the response, the EC50, lay at 8.56 nM and the “% EFF vs. 1 nM INSL3 (a)” value worked out at 33.99%.

For the compound `O=C1Nc2cnc(-c3cc(C(F)(F)F)cc(C(F)(F)F)c3)cc2C(=O)N2CCN(C(=O)COc3ccc(OC(F)(F)F)cc3I)C[C@@H]12` (single isomer, unassigned) [Example 196], under setting [2], the EC50 came to 984 nM and the “% EFF vs. 100 nM INSL3 (c)” value came to 109.23%.

For `O=C1Nc2ccc(-c3cccc(C(F)(F)F)c3)cc2C(=O)N2CCN(C(=O)COc3ccc(OC(F)(F)F)cc3Cl)C[C@@H]12` [Example 117, (S)-2-(2-(2-chloro-4-(trifluoromethoxy)phenoxy)acetyl)-8-(3-(trifluoromethyl)phenyl)-1,3,4,12a-tetrahydrobenzo[e]pyrazino[1,2-a][1,4]diazepine-6,12 (2H, 11H)-dione], under setting [3], the EC50 is 15.6 nM and the “% EFF vs. 1 nM INSL3 (b)” value was found to be 77.84%.

`O=C1Nc2ccc(-c3cccc(C(F)(F)F)c3)cc2C(=O)N2CCN(C(=O)COc3ccccc3)C[C@@H]12` [Example 112, (S)-2-(2-phenoxyacetyl)-8-(3-(trifluoromethyl)phenyl)-1,3,4,12a-tetrahydrobenzo[e]pyrazino[1,2-a][1,4]diazepine-6,12 (2H, 11H)-dione]: the “% EFF vs. 1 nM INSL3 (a)” value under setting [1] is on record as 12.93%.

For `Cc1cc(OC(F)(F)F)ccc1OCC(=O)N1CCN2C(=O)c3cc(-c4cccc(C(F)(F)F)c4)ccc3NC(=O)[C@H]2C1` [Example 121, (R)-2-(2-(2-methyl-4-(trifluoromethoxy)phenoxy)acetyl)-8-(3-(trifluoromethyl)phenyl)-1,3,4,12a-tetrahydrobenzo[e]pyrazino[1,2-a][1,4]diazepine-6,12 (2H, 11H)-dione], the “% EFF vs. 1 nM INSL3 (a)” value under setting [1] turned out to be 28.28%.

Turning to `O=C1Nc2ccc(-c3cc(C4CC4)cc(C(F)(F)F)c3)cc2C(=O)N2CCN(C(=O)COc3ccc(OC(F)(F)F)cc3Br)C[C@@H]12` [Example 191, (S)-2-(2-(2-bromo-4-(trifluoromethoxy)phenoxy)acetyl)-8-(3-cyclopropyl-5-(trifluoromethyl)phenyl)-1,3,4,12a-tetrahydrobenzo[e]pyrazino[1,2-a][1,4]diazepine-6,12 (2H, 11H)-dione], under setting [2], the EC50 was determined as 189 nM and the “% EFF vs. 100 nM INSL3 (c)” value is recorded as 66.75%.

As for `O=C1Nc2ccc(-c3cc(C4CC4)cc(C(F)(F)F)c3)cc2C(=O)N2CCN(C(=O)COc3ccc(OC(F)(F)F)cc3I)C[C@@H]12` [Example 192, (S)-8-(3-cyclopropyl-5-(trifluoromethyl)phenyl)-2-(2-(2-iodo-4-(trifluoromethoxy)phenoxy)acetyl)-1,3,4,12a-tetrahydrobenzo[e]pyrazino[1,2-a][1,4]diazepine-6,12 (2H, 11H)-dione], under setting [2], the EC50 came to 77.8 nM and the “% EFF vs. 100 nM INSL3 (c)” value is on record as 77.31%.

In the case of `O=C1Nc2ccc(-c3cc(C(F)(F)F)ccc3F)cc2C(=O)N2CCN(C(=O)COc3ccc(OC(F)(F)F)cc3Cl)C[C@@H]12` [Example 127, (S)-2-(2-(2-chloro-4-(trifluoromethoxy)phenoxy)acetyl)-8-(2-fluoro-5-(trifluoromethyl)phenyl)-1,3,4,12a-tetrahydrobenzo[e]pyrazino[1,2-a][1,4]diazepine-6,12 (2H, 11H)-dione], under setting [3], the EC50 came to 12 nM and the “% EFF vs. 1 nM INSL3 (b)” value worked out at 84.99%.

Consider `O=C1Nc2ccc(-c3cc(Cl)cc(C(F)(F)F)c3)cc2C(=O)N2CCN(C(=O)COc3ccc(OC(F)(F)F)cc3Br)C[C@@H]12` [Example 162, (S)-2-(2-(2-Bromo-4-(trifluoromethoxy)phenoxy)acetyl)-8-(3-chloro-5-(trifluoromethyl)phenyl)-1,3,4,12a-tetrahydrobenzo[e]pyrazino[1,2-a][1,4]diazepine-6,12 (2H, 11H)-dione], for which, under setting [3], the EC50 is 121 nM and the “% EFF vs. 1 nM INSL3 (b)” value is reported as 130.93%.

Take `O=C1Nc2ccc(-c3cccc(C(F)(F)F)c3)cc2C(=O)N2CCN(C(=O)COc3ccc(OC(F)(F)F)cc3F)CC12` (stereo not drawn) [Example 101, 2-(2-(2-fluoro-4-(trifluoromethoxy)phenoxy)acetyl)-8-(3-(trifluoromethyl)phenyl)-1,3,4,12a-tetrahydrobenzo[e]pyrazino[1,2-a][1,4]diazepine-6,12 (2H, 11H)-dione]: under setting [1], the EC50 is 24.5 nM and the “% EFF vs. 1 nM INSL3 (a)” value amounted to 35.5%.

In the case of `O=C1Nc2ccc(-c3cc(F)cc(C(F)(F)F)c3)cc2C(=O)N2CCN(C(=O)COc3ccc(C(F)(F)F)cc3Cl)C[C@@H]12` [Example 142, (S)-2-(2-(2-chloro-4-(trifluoromethyl)phenoxy)acetyl)-8-(3-fluoro-5-(trifluoromethyl)phenyl)-1,3,4,12a-tetrahydrobenzo[e]pyrazino[1,2-a][1,4]diazepine-6,12 (2H, 11H)-dione], under setting [3], a half-maximal effect (EC50) was put at 48 nM and the “% EFF vs. 1 nM INSL3 (b)” value amounted to 80.32%.

On to `Cc1cc(OC(F)F)ccc1OCC(=O)N1CCN2C(=O)c3cc(-c4cc(C(F)(F)F)cc(C(F)(F)F)c4)ccc3NC(=O)[C@@H]2C1` [Example 167, (S)-2-(2-(4-(difluoromethoxy)-2-methylphenoxy)acetyl)-8-(3-(trifluoromethyl)-5-(trifluoromethyl)phenyl)-1,3,4,12a-tetrahydrobenzo[e]pyrazino[1,2-a][1,4]diazepine-6,12 (2H, 11H)-dione], for which, under setting [3], the midpoint of the response, the EC50, lay at 142 nM and the “% EFF vs. 1 nM INSL3 (b)” value is recorded as 113.26%.

Take `Cc1cc(OC(F)(F)F)ccc1OCC(=O)N1CCN2C(=O)c3cc(-c4cccc(C(F)(F)F)c4)ccc3NC(=O)[C@@H]2C1` [Example 120, (S)-2-(2-(2-methyl-4-(trifluoromethoxy)phenoxy)acetyl)-8-(3-(trifluoromethyl)phenyl)-1,3,4,12a-tetrahydrobenzo[e]pyrazino[1,2-a][1,4]diazepine-6,12 (2H, 11H)-dione]: under setting [3], the response was half-maximal at 8.6 nM (EC50) and the “% EFF vs. 1 nM INSL3 (b)” value is listed as 70.76%.

`Cc1cc(OC(F)(F)F)ccc1OCC(=O)N1CCN2C(=O)c3cc(-c4cccc(C(F)(F)F)n4)ccc3NC(=O)C2C1` (stereo not drawn) [Example 108, 2-(2-(2-methyl-4-(trifluoromethoxy)phenoxy)-acetyl)-8-(6-(trifluoromethyl)pyridin-2-yl)-1,3,4,12a-tetrahydrobenzo[e]pyrazino[1,2-a][1,4]diazepine-6,12 (2H, 11H)-dione]: the “% EFF vs. 1 nM INSL3 (b)” value under setting [3] stood at 38.19%.

As for `Cc1cc(-c2ccc3c(c2)C(=O)N2CCN(C(=O)COc4ccc(OC(F)(F)F)cc4Cl)C[C@H]2C(=O)N3)cc(C(F)(F)F)c1` [Example 150, (S)-2-(2-(2-chloro-4-(trifluoromethoxy)phenoxy)acetyl)-8-(3-methyl-5-(trifluoromethyl)phenyl)-1,3,4,12a-tetrahydrobenzo[e]pyrazino[1,2-a][1,4]diazepine-6,12 (2H, 11H)-dione], under setting [3], the EC50 stood at 22.2 nM and the “% EFF vs. 1 nM INSL3 (b)” value amounted to 103.32%.
